How the values were obtained:
[1] = tested on: Platelet-derived growth factor receptor alpha (Homo sapiens), P16234 [T674I]; experiment: PDGFRA T674I Kinase screen; details: Compound concentration 1.0 uM
[2] = tested on: Mast/stem cell growth factor receptor Kit (Homo sapiens), P10721 [T670I]; experiment: KIT T670I Kinase screen; details: Compound concentration 1.0 uM
[3] = molecular target: Melanin-concentrating hormone receptor 1 (Homo sapiens) (UniProt Q99705); experiment: Melanin-Concentrating Hormone MCH1 (SLC1) Eurofins-Panlabs radioligand binding assay; set-up: ligand concentration 0.05 nM; details: Compound concentration 10.0 uM
[4] = molecular target: T1, Dual specificity mitogen-activated protein kinase kinase 3 (Homo sapiens) (UniProt P46734); experiment: MAP2K3 (MEK3) Kinase screen; details: Compound concentration 1.0 uM
T1 sequence (whole entry): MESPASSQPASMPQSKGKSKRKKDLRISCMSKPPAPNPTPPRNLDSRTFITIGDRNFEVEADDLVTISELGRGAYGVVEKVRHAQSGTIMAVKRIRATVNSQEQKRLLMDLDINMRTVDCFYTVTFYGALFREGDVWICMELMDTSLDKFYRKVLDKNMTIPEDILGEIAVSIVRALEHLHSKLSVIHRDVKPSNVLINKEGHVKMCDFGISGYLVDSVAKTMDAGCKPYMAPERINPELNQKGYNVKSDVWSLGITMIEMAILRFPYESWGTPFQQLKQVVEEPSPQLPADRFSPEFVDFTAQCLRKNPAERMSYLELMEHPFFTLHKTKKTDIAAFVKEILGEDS

[5] = molecular target: Proto-oncogene tyrosine-protein kinase receptor Ret (Homo sapiens) (UniProt P07949); experiment: RET Kinase screen; details: Compound concentration 1.0 uM
[6] = molecular target: MAP kinase-interacting serine/threonine-protein kinase 1 (Homo sapiens) (UniProt Q9BUB5); experiment: MKNK1 (MNK1) Kinase screen; details: Compound concentration 1.0 uM
[7] = molecular target: Vasoactive intestinal polypeptide receptor 1 (Homo sapiens) (UniProt P32241); experiment: Inhibition of Vasoactive Intestinal Peptide VIP1 at 10 µM in the Eurofins-Panlabs radioligand binding assay (Eurofins_assay_287010); details: Compound concentration 10.0 uM
[8] = molecular target: Phosphorylase b kinase gamma catalytic chain, skeletal muscle/heart isoform (Homo sapiens) (UniProt Q16816); experiment: PHKG1 Kinase screen; details: Compound concentration 1.0 uM
[9] = molecular target: Sodium-dependent serotonin transporter (Homo sapiens) (UniProt P31645); details: Compound concentration 10.0 uM
[10] = molecular target: MAP/microtubule affinity-regulating kinase 3 (Homo sapiens) (UniProt P27448); experiment: MARK3 Kinase screen; details: Compound concentration 1.0 uM
[11] = molecular target: T2, Discoidin domain-containing receptor 2 (Homo sapiens) (UniProt Q16832); experiment: DDR2 Kinase screen; details: Compound concentration 1.0 uM
T2 sequence (whole entry): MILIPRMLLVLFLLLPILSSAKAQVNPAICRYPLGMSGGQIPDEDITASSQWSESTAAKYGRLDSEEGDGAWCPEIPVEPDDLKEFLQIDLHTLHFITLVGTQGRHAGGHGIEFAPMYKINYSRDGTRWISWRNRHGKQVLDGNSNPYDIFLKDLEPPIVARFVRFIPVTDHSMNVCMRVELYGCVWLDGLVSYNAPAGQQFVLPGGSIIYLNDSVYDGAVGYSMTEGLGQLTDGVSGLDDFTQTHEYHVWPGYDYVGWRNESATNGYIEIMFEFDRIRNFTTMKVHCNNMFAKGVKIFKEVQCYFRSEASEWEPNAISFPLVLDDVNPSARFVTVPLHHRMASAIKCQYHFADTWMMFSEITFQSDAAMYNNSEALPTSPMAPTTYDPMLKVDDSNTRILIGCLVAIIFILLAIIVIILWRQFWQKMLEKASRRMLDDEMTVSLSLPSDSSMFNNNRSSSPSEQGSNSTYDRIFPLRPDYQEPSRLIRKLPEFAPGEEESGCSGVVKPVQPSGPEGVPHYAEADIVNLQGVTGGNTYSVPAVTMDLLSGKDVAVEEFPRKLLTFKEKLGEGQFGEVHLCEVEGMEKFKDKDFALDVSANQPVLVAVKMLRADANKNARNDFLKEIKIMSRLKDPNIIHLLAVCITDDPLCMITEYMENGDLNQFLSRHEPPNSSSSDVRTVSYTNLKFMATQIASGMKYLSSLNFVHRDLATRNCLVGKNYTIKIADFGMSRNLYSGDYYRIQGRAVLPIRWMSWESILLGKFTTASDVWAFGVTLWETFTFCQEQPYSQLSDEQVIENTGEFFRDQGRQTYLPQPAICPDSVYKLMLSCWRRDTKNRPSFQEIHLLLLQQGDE

[12] = molecular target: T3, Serine/threonine-protein kinase Chk1 (Homo sapiens) (UniProt O14757); experiment: CHEK1 (CHK1) Kinase screen; details: Compound concentration 1.0 uM
T3 sequence (whole entry): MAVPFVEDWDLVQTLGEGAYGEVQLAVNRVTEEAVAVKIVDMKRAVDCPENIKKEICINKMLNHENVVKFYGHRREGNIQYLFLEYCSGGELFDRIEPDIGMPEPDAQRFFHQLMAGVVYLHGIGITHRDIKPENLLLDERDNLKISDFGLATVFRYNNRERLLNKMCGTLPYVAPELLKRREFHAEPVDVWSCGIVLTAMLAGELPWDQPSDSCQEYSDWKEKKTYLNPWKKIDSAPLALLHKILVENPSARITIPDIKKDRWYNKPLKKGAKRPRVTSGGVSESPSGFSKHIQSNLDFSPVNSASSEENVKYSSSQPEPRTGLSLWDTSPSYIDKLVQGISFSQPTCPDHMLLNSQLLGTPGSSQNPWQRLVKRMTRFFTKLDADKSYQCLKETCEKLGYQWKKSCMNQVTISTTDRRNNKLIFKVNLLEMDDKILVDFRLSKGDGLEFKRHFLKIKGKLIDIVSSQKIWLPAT

[13] = molecular target: MAO-A (amine oxidase [flavin-containing] A) (Homo sapiens, UniProt P21397); experiment: Inhibition of Monoamine Oxidase MAO-A at compound concentration of 10.0 uM in the Eurofins-Panlabs enzyme assay (Eurofins_assay_140010); set-up: substrate with concentration 50 uM Kynuramine, incubation time 60 min, incubation temperature 37 C; details: recombinant human MAO-A expressed in insect Hi5 cells, probe kynuramine (50 uM), compound concentration 10 uM
[14] = molecular target: Serine/threonine-protein kinase PAK 2 (Homo sapiens) (UniProt Q13177); experiment: PAK2 (PAK65) Kinase screen; details: Compound concentration 1.0 uM
[15] = molecular target: Ribosomal protein S6 kinase alpha-4 (Homo sapiens) (UniProt O75676); experiment: RPS6KA4 (MSK2) Kinase screen; details: Compound concentration 1.0 uM
[16] = molecular target: Serine/threonine-protein kinase mTOR (Homo sapiens) (UniProt P42345); experiment: FRAP1 (mTOR) Kinase screen; details: Compound concentration 1.0 uM
[17] = molecular target: Calcium/calmodulin-dependent protein kinase type II subunit alpha (Homo sapiens) (UniProt Q9UQM7); experiment: CAMK2A (CaMKII alpha) Kinase screen; details: Compound concentration 1.0 uM
[18] = molecular target: Tyrosine-protein kinase Blk (Homo sapiens) (UniProt P51451); experiment: BLK Kinase screen; details: Compound concentration 1.0 uM

Sequence of Calcium/calmodulin-dependent protein kinase type II subunit alpha (Homo sapiens) (Q9UQM7 whole entry): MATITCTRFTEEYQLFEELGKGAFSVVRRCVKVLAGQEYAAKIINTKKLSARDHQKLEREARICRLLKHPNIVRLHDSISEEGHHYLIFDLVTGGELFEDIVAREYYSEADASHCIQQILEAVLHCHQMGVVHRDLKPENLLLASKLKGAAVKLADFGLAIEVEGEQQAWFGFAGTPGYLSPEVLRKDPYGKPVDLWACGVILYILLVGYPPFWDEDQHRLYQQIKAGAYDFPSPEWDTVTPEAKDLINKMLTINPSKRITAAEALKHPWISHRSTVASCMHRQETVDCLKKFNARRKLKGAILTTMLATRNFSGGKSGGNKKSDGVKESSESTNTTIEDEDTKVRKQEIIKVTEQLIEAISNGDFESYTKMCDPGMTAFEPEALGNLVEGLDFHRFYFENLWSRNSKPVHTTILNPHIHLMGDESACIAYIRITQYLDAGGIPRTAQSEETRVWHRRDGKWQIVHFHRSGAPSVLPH
Sequence of Serine/threonine-protein kinase PAK 2 (Homo sapiens) (Q13177 whole entry): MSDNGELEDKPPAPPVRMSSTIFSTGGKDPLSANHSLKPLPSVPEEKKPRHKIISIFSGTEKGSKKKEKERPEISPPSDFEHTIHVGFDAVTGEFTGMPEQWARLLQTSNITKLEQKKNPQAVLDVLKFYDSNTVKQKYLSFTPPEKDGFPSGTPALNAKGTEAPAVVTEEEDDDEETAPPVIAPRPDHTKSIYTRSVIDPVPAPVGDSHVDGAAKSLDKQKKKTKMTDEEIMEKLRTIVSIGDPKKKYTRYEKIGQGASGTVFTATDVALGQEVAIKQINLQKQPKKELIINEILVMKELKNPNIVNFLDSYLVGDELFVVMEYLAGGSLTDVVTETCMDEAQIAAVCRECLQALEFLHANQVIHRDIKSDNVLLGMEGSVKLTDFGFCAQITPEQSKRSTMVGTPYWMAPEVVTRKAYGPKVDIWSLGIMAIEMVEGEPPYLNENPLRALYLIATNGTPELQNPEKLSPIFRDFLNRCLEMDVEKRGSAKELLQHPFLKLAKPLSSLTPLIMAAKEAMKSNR
Sequence of Melanin-concentrating hormone receptor 1 (Homo sapiens) (Q99705 whole entry): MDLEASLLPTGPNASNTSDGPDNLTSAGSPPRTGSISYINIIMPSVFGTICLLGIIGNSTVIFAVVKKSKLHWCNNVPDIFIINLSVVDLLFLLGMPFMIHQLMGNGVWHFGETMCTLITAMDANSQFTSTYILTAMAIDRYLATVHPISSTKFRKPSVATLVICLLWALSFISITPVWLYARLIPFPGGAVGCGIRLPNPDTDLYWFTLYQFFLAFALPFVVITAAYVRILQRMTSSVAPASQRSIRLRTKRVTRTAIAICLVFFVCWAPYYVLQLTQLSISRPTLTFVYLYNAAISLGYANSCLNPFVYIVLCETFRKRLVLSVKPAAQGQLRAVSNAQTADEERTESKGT
Sequence of Proto-oncogene tyrosine-protein kinase receptor Ret (Homo sapiens) (P07949 whole entry): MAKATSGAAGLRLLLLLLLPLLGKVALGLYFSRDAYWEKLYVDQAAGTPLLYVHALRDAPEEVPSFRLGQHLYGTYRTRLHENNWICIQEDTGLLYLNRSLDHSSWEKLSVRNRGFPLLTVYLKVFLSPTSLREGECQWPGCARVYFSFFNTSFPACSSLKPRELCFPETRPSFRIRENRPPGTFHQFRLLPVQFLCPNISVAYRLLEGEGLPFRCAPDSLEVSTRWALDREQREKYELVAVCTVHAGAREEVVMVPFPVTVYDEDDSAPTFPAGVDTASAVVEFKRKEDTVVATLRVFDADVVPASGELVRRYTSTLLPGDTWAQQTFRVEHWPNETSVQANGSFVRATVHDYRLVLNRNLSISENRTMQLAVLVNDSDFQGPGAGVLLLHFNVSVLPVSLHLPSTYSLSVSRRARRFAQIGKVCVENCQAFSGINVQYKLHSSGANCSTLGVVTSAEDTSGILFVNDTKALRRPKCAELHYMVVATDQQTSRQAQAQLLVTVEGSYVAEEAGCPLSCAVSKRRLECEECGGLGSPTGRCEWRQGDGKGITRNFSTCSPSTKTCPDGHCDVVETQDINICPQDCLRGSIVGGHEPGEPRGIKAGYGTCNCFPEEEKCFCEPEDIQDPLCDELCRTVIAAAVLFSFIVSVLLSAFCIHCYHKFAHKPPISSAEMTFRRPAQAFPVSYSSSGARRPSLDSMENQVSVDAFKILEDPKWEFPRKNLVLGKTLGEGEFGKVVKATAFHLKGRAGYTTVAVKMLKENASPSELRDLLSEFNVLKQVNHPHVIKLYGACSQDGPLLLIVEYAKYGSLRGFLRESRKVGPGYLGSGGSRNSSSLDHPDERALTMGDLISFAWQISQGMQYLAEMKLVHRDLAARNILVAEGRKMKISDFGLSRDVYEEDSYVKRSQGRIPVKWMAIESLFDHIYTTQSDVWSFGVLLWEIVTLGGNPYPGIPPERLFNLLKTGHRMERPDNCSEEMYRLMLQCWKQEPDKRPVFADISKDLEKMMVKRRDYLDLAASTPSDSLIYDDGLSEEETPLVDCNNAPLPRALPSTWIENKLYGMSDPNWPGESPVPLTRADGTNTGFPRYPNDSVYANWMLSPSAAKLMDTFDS
Sequence of Sodium-dependent serotonin transporter (Homo sapiens) (P31645 whole entry, looked up): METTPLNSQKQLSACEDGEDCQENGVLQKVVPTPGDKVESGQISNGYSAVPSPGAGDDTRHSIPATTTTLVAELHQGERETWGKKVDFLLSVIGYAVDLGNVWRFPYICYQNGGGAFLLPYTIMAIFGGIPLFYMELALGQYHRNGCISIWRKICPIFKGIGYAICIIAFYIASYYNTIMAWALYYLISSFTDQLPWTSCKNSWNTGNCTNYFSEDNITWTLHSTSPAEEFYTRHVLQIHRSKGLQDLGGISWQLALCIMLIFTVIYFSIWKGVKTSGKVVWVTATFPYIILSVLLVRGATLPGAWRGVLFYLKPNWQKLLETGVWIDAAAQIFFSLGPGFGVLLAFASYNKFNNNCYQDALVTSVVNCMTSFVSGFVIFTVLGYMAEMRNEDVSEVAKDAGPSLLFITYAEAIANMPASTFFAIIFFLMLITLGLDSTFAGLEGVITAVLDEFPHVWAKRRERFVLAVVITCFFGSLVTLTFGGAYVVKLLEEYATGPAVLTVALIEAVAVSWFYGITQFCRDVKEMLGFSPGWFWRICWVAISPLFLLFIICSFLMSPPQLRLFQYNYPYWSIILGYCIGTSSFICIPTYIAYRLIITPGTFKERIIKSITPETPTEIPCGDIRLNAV
Sequence of MAP kinase-interacting serine/threonine-protein kinase 1 (Homo sapiens) (Q9BUB5 whole entry, looked up): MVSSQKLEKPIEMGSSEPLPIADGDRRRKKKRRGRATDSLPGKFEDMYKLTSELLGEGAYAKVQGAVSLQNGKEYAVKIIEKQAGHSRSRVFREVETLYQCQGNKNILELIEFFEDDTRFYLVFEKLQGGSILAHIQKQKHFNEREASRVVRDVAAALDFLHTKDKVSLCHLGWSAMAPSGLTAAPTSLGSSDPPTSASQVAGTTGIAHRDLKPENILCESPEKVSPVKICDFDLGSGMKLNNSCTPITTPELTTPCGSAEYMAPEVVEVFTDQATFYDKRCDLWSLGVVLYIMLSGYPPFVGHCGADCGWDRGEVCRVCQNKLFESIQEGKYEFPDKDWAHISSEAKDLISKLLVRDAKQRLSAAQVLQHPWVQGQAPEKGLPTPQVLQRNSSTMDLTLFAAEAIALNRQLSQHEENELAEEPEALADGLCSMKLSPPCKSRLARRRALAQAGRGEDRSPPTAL
Sequence of MAO-A (amine oxidase [flavin-containing] A) (P21397 whole entry): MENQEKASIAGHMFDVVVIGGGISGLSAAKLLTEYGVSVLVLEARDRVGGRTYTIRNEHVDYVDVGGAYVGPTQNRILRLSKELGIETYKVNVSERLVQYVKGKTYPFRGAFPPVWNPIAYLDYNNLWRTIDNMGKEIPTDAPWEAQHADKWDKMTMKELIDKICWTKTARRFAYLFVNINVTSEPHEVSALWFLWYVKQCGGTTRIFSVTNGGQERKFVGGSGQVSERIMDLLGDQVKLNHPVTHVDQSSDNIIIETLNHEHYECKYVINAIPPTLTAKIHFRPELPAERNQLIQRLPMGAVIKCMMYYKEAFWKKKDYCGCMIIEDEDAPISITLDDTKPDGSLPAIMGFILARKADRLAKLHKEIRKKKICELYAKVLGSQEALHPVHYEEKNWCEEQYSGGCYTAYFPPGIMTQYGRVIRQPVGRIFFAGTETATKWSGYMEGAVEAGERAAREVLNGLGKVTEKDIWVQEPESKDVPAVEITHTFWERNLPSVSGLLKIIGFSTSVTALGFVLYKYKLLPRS
Sequence of Vasoactive intestinal polypeptide receptor 1 (Homo sapiens) (P32241 whole entry, canonical isoform): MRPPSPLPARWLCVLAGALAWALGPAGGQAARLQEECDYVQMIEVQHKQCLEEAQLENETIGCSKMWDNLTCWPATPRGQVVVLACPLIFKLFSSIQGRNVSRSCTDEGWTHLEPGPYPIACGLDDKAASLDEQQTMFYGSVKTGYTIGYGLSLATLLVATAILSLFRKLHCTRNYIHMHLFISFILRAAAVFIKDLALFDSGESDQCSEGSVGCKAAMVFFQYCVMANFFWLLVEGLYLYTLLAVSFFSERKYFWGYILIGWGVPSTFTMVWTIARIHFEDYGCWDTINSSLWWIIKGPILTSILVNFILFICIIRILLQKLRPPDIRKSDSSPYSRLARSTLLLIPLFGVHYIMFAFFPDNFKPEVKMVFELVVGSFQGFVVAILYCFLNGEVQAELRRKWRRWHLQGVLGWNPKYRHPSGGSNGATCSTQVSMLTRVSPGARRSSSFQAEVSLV
Sequence of Phosphorylase b kinase gamma catalytic chain, skeletal muscle/heart isoform (Homo sapiens) (Q16816 whole entry, looked up, canonical isoform): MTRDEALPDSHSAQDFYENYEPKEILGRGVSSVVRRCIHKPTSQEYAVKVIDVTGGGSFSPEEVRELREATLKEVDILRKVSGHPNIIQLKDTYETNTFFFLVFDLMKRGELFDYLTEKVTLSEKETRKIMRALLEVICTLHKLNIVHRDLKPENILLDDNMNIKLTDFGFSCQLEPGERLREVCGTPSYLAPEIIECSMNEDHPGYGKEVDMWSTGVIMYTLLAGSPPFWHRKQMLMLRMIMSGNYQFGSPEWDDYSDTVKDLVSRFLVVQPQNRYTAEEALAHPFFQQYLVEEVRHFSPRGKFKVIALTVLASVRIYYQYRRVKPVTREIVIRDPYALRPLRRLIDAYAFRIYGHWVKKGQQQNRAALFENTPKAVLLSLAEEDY

C[C@@H]1CN(c2cc(-c3n[nH]c4ccc(OC5(C)CC5)cc34)ncn2)C[C@H](C)O1 [MLi-2]
2% (not active): inhibition at 60 min, 10 µM [13]
inactive: inhibition [1] 23.5% | inhibition [2] -0.692% | inhibition [3] 1% | inhibition [4] -2.3% | inhibition [5] 5.76% | inhibition [6] -3.19% | inhibition [7] 3% | inhibition [8] 0.801% | inhibition [9] 2% | inhibition [10] 1.57% | inhibition [11] 3.64% | inhibition [12] -0.226% | inhibition [14] 8.73% | inhibition [15] 7.68% | inhibition [16] 7.14% | inhibition [17] 7.96% | inhibition [18] 8.15%

Source: ChEMBL document CHEMBL4507291 (2021)
